Tests used:
Format in all cases: in vivo
Details in all cases: evaluated after 13 days
[1] = system: Amaranthus palmeri (AMAPA); experiment: Post-emergence Test, Amaranthus palmeri (AMAPA); set-up: key: 5=81-100%, 4=61-80%, 3=41-60%, 2=21-40%, 1=0-20% damage
Procedure, shortened: (§1)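 Pots sprayed with compound in acetone/water (50:50) with 0.5% Tween 20, at 1000 g/ha unless noted, glasshouse 24/16 °C, 14 h light, 65% humidity. Damage scored 13 days after spraying on a five-point scale (5=81-100% to 1=0-20%).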

[2] = system: Amaranthus retoflexus (AMARE); experiment: Pre-emergence Test, Amaranthus retoflexus (AMARE)
Setaria faberi (SETFA) [3] = experiment: Pre-emergence Test, Setaria faberi (SETFA)
[4] = system: Echinochloa crus-galli (ECHCG); experiment: Pre-emergence Test, Echinochloa crus-galli (ECHCG)
Zea mays (ZEAMX) [5] = experiment: Pre-emergence Test, Zea mays (ZEAMX)
[6] = system: Ipomoea hederacea (IPOHE); experiment: Post-emergence Test, Ipomoea hederacea (IPOHE); set-up: key to percentage damage caused to the plant, IPOHE (five-point scale): 5=81-100%, 4=61-80%, 3=41-60%, 2=21-40%, 1=0-20% damage
Procedure, shortened: as §1

[7] = system: Amaranthus palmeri (AMAPA); experiment: Pre-emergence Test, Amaranthus palmeri (AMAPA)
[8] = system: Amaranthus retoflexus (AMARE); experiment: Post-emergence Test, Amaranthus retoflexus (AMARE); set-up: key to percentage damage caused to the plant, AMARE (five-point scale): 5=81-100%, 4=61-80%, 3=41-60%, 2=21-40%, 1=0-20% damage
Procedure, shortened: as §1

Zea mays (ZEAMX) [9] = experiment: Post-emergence Test, Zea mays (ZEAMX); set-up: key to percentage damage caused to the plant, ZEAMX (five-point scale): 5=81-100%, 4=61-80%, 3=41-60%, 2=21-40%, 1=0-20% damage
Procedure, shortened: as §1

[10] = system: Ipomoea hederacea (IPOHE); experiment: Pre-emergence Test, Ipomoea hederacea (IPOHE)
[11] = system: Echinochloa crus-galli (ECHCG); experiment: Post-emergence Test, Echinochloa crus-galli (ECHCG); set-up: key to percentage damage caused to the plant, ECHCG (five-point scale): 5=81-100%, 4=61-80%, 3=41-60%, 2=21-40%, 1=0-20% damage
Procedure, shortened: as §1

Setaria faberi (SETFA) [12] = experiment: Post-emergence Test, Setaria faberi (SETFA); set-up: key to percentage damage caused to the plant, SETFA (five-point scale): 5=81-100%, 4=61-80%, 3=41-60%, 2=21-40%, 1=0-20% damage
Procedure, shortened: as §1

| Compound | percentage damage caused to the plant, AMAPA (five-point scale) ([1]; 250 g/Ha) | percentage damage caused to the plant, AMAPA (five-point scale) ([1]; 1000 g/ha) | Pre-emergence Test AMARE, percentage damage caused to the plant (five-point scale) ([2]; 1000 g/ha) | Pre-emergence Test SETFA, percentage damage caused to the plant (five-point scale) (Setaria faberi (SETFA) [3]; 1000 g/ha) | Pre-emergence Test ECHCG, percentage damage caused to the plant (five-point scale) ([4]; 1000 g/ha) | Pre-emergence Test ZEAMX, percentage damage caused to the plant (five-point scale) (Zea mays (ZEAMX) [5]; 1000 g/ha) | percentage damage caused to the plant, IPOHE (five-point scale) ([6]; 250 g/Ha) | percentage damage caused to the plant, IPOHE (five-point scale) ([6]; 1000 g/ha) | Pre-emergence Test AMAPA, percentage damage caused to the plant (five-point scale) ([7]; 1000 g/ha) | percentage damage caused to the plant, AMARE (five-point scale) ([8]; 250 g/Ha) | percentage damage caused to the plant, AMARE (five-point scale) ([8]; 1000 g/ha) | percentage damage caused to the plant, ZEAMX (five-point scale) (Zea mays (ZEAMX) [9]; 250 g/Ha) | percentage damage caused to the plant, ZEAMX (five-point scale) (Zea mays (ZEAMX) [9]; 1000 g/ha) | Pre-emergence Test IPOHE, percentage damage caused to the plant (five-point scale) ([10]; 1000 g/ha) | percentage damage caused to the plant, ECHCG (five-point scale) ([11]; 250 g/Ha) | percentage damage caused to the plant, ECHCG (five-point scale) ([11]; 1000 g/ha) | percentage damage caused to the plant, SETFA (five-point scale) (Setaria faberi (SETFA) [12]; 250 g/Ha) | percentage damage caused to the plant, SETFA (five-point scale) (Setaria faberi (SETFA) [12]; 1000 g/ha) | Pre-emergence Test AMARE, percentage damage caused to the plant (five-point scale) ([2]; 250 g/Ha (*)) | Pre-emergence Test SETFA, percentage damage caused to the plant (five-point scale) (Setaria faberi (SETFA) [3]; 250 g/Ha (*)) | further results |
| --- | --- | --- | --- | --- | --- | --- | --- | --- | --- | --- | --- | --- | --- | --- | --- | --- | --- | --- | --- | --- | --- |
| COCCn1c(Cn2ccc(Cl)n2)cc(=O)c(C(=O)O)c1-c1ccc(Cl)c(Cl)c1 [Compound 171, 6-[(3-chloropyrazol-1-yl)methyl]-2-(3,4-dichlorophenyl)-1-(2-methoxyethyl)-4-oxo-pyridine-3-carboxylic acid] | 0 | 0 | 1 (1=0-20%) | 4 (4=61-80%) | 1 (1=0-20%) | 1 (1=0-20%) | 1 (1=0-20%) | 1 (1=0-20%) | 0 | 0 | 0 | 1 (1=0-20%) | 1 (1=0-20%) | 0 | 1 (1=0-20%) | 3 (3=41-60%) | 0 | 3 (3=41-60%) | – | – | – |
| CCOC(=O)c1cc(C(=O)OCC)n(Cc2cc(=O)c(C(=O)O)c(-c3ccc(Cl)c(Cl)c3)n2CC)n1 [Compound 112, 6-[[3,5-bis(ethoxycarbonyl)pyrazol-1-yl]methyl]-2-(3,4-dichlorophenyl)-1-ethyl-4-oxo-pyridine-3-carboxylic acid] | – | 1 (1=0-20%) | 1 (1=0-20%) | 0 | 0 | 0 | – | 2 (2=21-40%) | 1 (1=0-20%) | – | 1 (1=0-20%) | – | 0 | 0 | – | 2 (2=21-40%) | – | 1 (1=0-20%) | – | – | – |
| C=CCOc1ccn(Cc2cc(=O)c(C(=O)O)c(-c3ccc(Cl)c(Cl)c3)n2CC)n1 [Compound 163, 6-[(3-allyloxypyrazol-1-yl)methyl]-2-(3,4-dichlorophenyl)-1-ethyl-4-oxo-pyridine-3-carboxylic acid] | – | 1 (1=0-20%) | 0 | 3 (3=41-60%) | 4 (4=61-80%) | 2 (2=21-40%) | – | 2 (2=21-40%) | 0 | – | 1 (1=0-20%) | – | 1 (1=0-20%) | 3 (3=41-60%) | – | 3 (3=41-60%) | – | 4 (4=61-80%) | 0 | 0 | Pre-emergence Test ECHCG, percentage damage caused to the plant (five-point scale) ([4]; 250 g/Ha (*)): 1 (1=0-20%); Pre-emergence Test ZEAMX, percentage damage caused to the plant (five-point scale) (Zea mays (ZEAMX) [5]; 250 g/Ha (*)): 0; Pre-emergence Test AMAPA, percentage damage caused to the plant (five-point scale) ([7]; 250 g/Ha (*)): 0; Pre-emergence Test IPOHE, percentage damage caused to the plant (five-point scale) ([10]; 250 g/Ha (*)): 1 (1=0-20%) |
| CCn1c(Cn2ccc(C(F)(F)F)n2)cc(=O)c(C(=O)O)c1-c1ccc(F)c(Cl)c1 [Compound 32, 2-(3-chloro-4-fluoro-phenyl)-1-ethyl-4-oxo-6-[[3-(trifluoromethyl)pyrazol-1-yl]methyl]pyridine-3-carboxylic acid] | 2 (2=21-40%) | 2 (2=21-40%) | 3 (3=41-60%) | 5 (5=81-100%) | 5 (5=81-100%) | 4 (4=61-80%) | 4 (4=61-80%) | 2 (2=21-40%) | 4 (4=61-80%) | 1 (1=0-20%) | 4 (4=61-80%) | 1 (1=0-20%) | 3 (3=41-60%) | 3 (3=41-60%) | 3 (3=41-60%) | 4 (4=61-80%) | 4 (4=61-80%) | 4 (4=61-80%) | – | – | – |
| CCOC(=O)c1c(-c2ccc(Cl)c(Cl)c2)n(CC)c(Cn2ccc(C(F)(F)F)n2)cc1=O [Compound 1, ethyl 2-(3,4-dichlorophenyl)-1-ethyl-4-oxo-6-[[3-(trifluoromethyl)pyrazol-1-yl]methyl]pyridine-3-carboxylate] | 0 | 1 (1=0-20%) | 0 | 4 (4=61-80%) | 3 (3=41-60%) | 0 | 2 (2=21-40%) | 1 (1=0-20%) | 0 | 0 | 1 (1=0-20%) | 1 (1=0-20%) | 3 (3=41-60%) | 0 | 3 (3=41-60%) | 4 (4=61-80%) | 3 (3=41-60%) | 4 (4=61-80%) | 0 | 4 (4=61-80%) | Pre-emergence Test ECHCG, percentage damage caused to the plant (five-point scale) ([4]; 250 g/Ha (*)): 2 (2=21-40%); Pre-emergence Test ZEAMX, percentage damage caused to the plant (five-point scale) (Zea mays (ZEAMX) [5]; 250 g/Ha (*)): 0; Pre-emergence Test AMAPA, percentage damage caused to the plant (five-point scale) ([7]; 250 g/Ha (*)): 0; Pre-emergence Test IPOHE, percentage damage caused to the plant (five-point scale) ([10]; 250 g/Ha (*)): 0 |
